From patent US12310946B2, “Pharmaceutical composition for oral administration of edaravone and method of administering same” (MITSUBISHI TANABE PHARMA CORPORATION, priority 2020, dated 2025)

Test: Solubility of edaravone in water and BCS classification
Format: physicochemical
Procedure: Since 1 g of edaravone requires 500 mL of water to dissolve, 105 mg of edaravone is calculated to require 52.5 mL of water. […] Thus, edaravone is regarded as a BCS Class 1 drug with high solubility and high permeability. These findings led to a brief that edaravone is a compound whose pharmacokinetics are not affected by meal consumption. […] Not only the presence or absence of a meal but also the types of meal cause differences in effects on the pharmacokinetics of edaravone, and suitable administration timing depends on each type of meal.

water required to dissolve 105 mg of edaravone (105 mg of edaravone, calculated): 52.5 mL
water required to dissolve 1 g of edaravone (1 g of edaravone): 500 mL
solubility classification (Biopharmaceutics Classification System): high solubility compound
solubility (for example, water, read-out: saturation solubility of edaravone with respect to a dispersion medium): ≤ 2000 µg/mL
BCS class (solubility and Caco-2 permeability): BCS Class 1
SMILES: CC1=NN(c2ccccc2)C(=O)C1 [Edaravone, 3-methyl-1-phenyl-2-pyrazolin-5-one]
